Test results: US20230381201A1, “METHODS AND COMPOSITIONS FOR TREATING FIBROTIC DISEASES” (MAX BioPharma, Inc., priority 2020, published 2023)

How the values were obtained:
IMR-90 cells [1] = assay: IMR-90 lung fibroblast cell proliferation (cell count); type: cell-based; settings: IMR-90 normal human lung fibroblast cells, DMEM 1% FBS, 5 days; FIG. 5, p<0.01 vs. control
Experimental: IMR-90 cells were treated with Oxy210 at the concentrations as indicated in DMEM containing 1% FBS for 5 days and then were trypsinized and counted.

LL97A cells [2] = assay: TGFβ-induced COL1A1 and a-SMA expression by Q-RT-PCR in LL97A cells; type: cell-based, human; settings: 48 hours, FIG. 8
Experimental: LL97A cells were pretreated in F12K medium containing 1% FBS for 24 hours and then the cells were treated with TGFβ in the absence or presence of Oxy210 at the indicated concentrations. After 48 hours, RNA was extracted and analyzed by Q-RT-PCR for the expression of the genes as indicated and normalized to GAPDH expression.

LL97A cells [3] = assay: Basal COL1A1 expression by Q-RT-PCR in LL97A cells; type: cell-based, human; settings: F12K 1% FBS, 72 hours, FIG. 9, p<0.01 vs control
Experimental: LL97A cells were treated in F12K medium containing 1% FBS and Oxy210 at the indicated concentrations for 72 hours. RNA was then extracted and analyzed by Q-RT-PCR for the expression of the genes as indicated and normalized to GAPDH expression.

IMR-90 cells [4] = assay: Basal profibrotic gene expression by Q-RT-PCR in IMR-90 cells; type: cell-based, human; settings: F12K 1% FBS, 72 hours, FIG. 7
Experimental: IMR-90 cells were treated in F12K medium containing 1% FBS and Oxy210 at the indicated concentrations for 72 hours. RNA was then extracted and analyzed by Q-RT-PCR for the expression of the genes as indicated and normalized to GAPDH expression.

[5] = test system: Primary human renal proximal tubular epithelial cells; assay: TGFβ-induced epithelial mesenchymal transition (EMT) of renal tubular epithelial cells, Q-RT-PCR of EMT markers and Gli1; type: cell-based; settings: TGFβ 10 ng/mL, 48 hours, FIG. 4, p<0.01 vs. TGFβ
Experimental: Primary human renal proximal tubular epithelial cells cultured in RPMI containing 1% FBS were treated with TGFβ (10 ng/mL) in the absence or presence of Oxy210 for 48 hours. RNA was extracted and analyzed by Q-RT-PCR for the expression of the EMT markers and Gli1 and normalized to GAPDH expression.

C57BL/6 mice = assay: Bleomycin-induced pulmonary fibrosis in mice, H&E staining of lung sections; type: in vivo; settings: bleomycin once intratracheally, FIG. 10
Experimental: C57BL/6 mice were treated once intratracheally with bleomycin with or without pirfenidone or Oxy210.

LL97A cells [6] = assay: LL97A lung fibroblast cell proliferation (cell count); type: cell-based; settings: LL97A human lung fibroblast cells from a subject with idiopathic pulmonary fibrosis, F12K 1% FBS, 5 days; FIG. 6
Experimental: LL97A cells were treated with Oxy210 at the concentrations as indicated in F12K containing 1% FBS for 5 days and then were trypsinized and counted.

profibrogenic genes = assay: Basal expression of profibrogenic genes by Q-RT-PCR in primary human pericytes; type: cell-based; settings: DMEM 5% FBS, 72 hours, normalized to GAPDH, FIG. 2, p<0.01 vs. control
Experimental: Primary human pericytes were treated with control vehicle or Oxy210 for 72 hours in DMEM containing 5% FBS. RNA was extracted and analyzed by Q-RT-PCR for the expression of profibrotic genes and normalized to GAPDH expression.

TGFβ target genes = assay: Basal expression of TGFβ target genes by Q-RT-PCR in primary human liver stellate cells; type: cell-based; settings: DMEM 1% FBS, 48 hours, normalized to GAPDH, FIG. 1, p<0.01 vs. control
Experimental: Primary human liver stellate cells were treated in DMEM containing 1% fetal bovine serum (FBS) for 24 hours. Next, they were treated with control vehicle or Oxy210. After 48 hours, RNA was extracted and analyzed by Q-RT-PCR for the expression of the genes as indicated and normalized to GAPDH expression.

C[C@]12CC[C@H]3[C@@H](CC=C4C[C@@H](O)CC[C@@]43C)[C@@H]1CC[C@@H]2[C@](C)(O)CCc1cccnc1 [Oxy210]
cell proliferation (IMR-90 cells [1]): inhibition of IMR-90 normal human lung fibroblast cell proliferation
TGFβ-induced COL1A1 expression (LL97A cells [2]): inhibits
TGFβ-induced a-SMA expression (LL97A cells [2]): inhibits
basal COL1A1 expression (LL97A cells [3]): inhibits basal COL1A1 expression
basal profibrotic gene expression (IMR-90 cells [4]): inhibits basal profibrotic gene expression
TGFβ-induced epithelial mesenchymal transition (EMT) [5]: inhibition of TGFβ-induced epithelial mesenchymal transition (EMT)
bleomycin-induced damages to the lung architecture (C57BL/6 mice): clear beneficial effect
cell proliferation (LL97A cells [6]): inhibition of proliferation of LL97A human lung fibroblast cells
basal expression of profibrogenic genes (profibrogenic genes): inhibition of basal expression of profibrogenic genes
basal expression of TGFβ target genes (TGFβ target genes): inhibition of basal expression of TGFβ target genes
